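Interpolation was linear, between the two tested concentrations surrounding the appropriate level; five concentrations were tested over 48 hours in 96-well plates. At the GI50, growth is halved. TGI: concentration producing complete growth inhibition.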
Columns and labels:
Test in all cases: growth of human tumour cells (NCI), 48 h
NCI-H226 lung = tested on: NCI-H226 lung
HCT-116 colon = tested on: HCT-116 colon
SNB-19 CNS = tested on: SNB-19 CNS
SR leukemia = tested on: SR leukemia
OVCAR-3 ovarian = tested on: OVCAR-3 ovarian
SK-OV-3 ovarian = tested on: SK-OV-3 ovarian
RPMI-8226 leukemia = tested on: RPMI-8226 leukemia
TK-10 renal = tested on: TK-10 renal
HT29 colon = tested on: HT29 colon
SN12C renal = tested on: SN12C renal

| Structure (SMILES) | GI50 (NCI-H226 lung) [µM] | TGI (NCI-H226 lung) [µM] | GI50 (HCT-116 colon) [µM] | TGI (HCT-116 colon) [µM] | GI50 (SNB-19 CNS) [µM] | TGI (SNB-19 CNS) [µM] | GI50 (SR leukemia) [µM] | TGI (SR leukemia) [µM] | GI50 (OVCAR-3 ovarian) [µM] | TGI (OVCAR-3 ovarian) [µM] | GI50 (SK-OV-3 ovarian) [µM] | TGI (SK-OV-3 ovarian) [µM] | GI50 (RPMI-8226 leukemia) [µM] | TGI (RPMI-8226 leukemia) [µM] | GI50 (TK-10 renal) [µM] | TGI (TK-10 renal) [µM] | GI50 (HT29 colon) [µM] | TGI (HT29 colon) [µM] | GI50 (SN12C renal) [µM] | TGI (SN12C renal) [µM] |
| --- | --- | --- | --- | --- | --- | --- | --- | --- | --- | --- | --- | --- | --- | --- | --- | --- | --- | --- | --- | --- |
| CC[C@@H](C)/C=C(C)/C=C/C(=O)c1c(O)c(-c2ccc(O)cc2)cn(O)c1=O | 0.274 | 4.88 | 0.395 | 13 | 0.575 | 16.3 | 0.25 | 4.82 | 0.395 | 13 | 0.642 | 21.7 | 0.504 | 18 | 0.524 | 15.3 | 3.22 | 11.4 | 0.391 | 12.3 |
| CCNC(=O)OCc1c(COC(=O)NCC)c(-c2ccc(Cl)c(Cl)c2)n2c1CCC2 |  | 7.85 |  | 33.6 |  | 68.1 |  | 30.1 |  | 45.8 |  |  |  | 27.9 |  | 54.5 |  | > 100 |  |  |
| CCCCCC/C=C\CCCCCCCCCC1=C(CN2CCN(C)CC2)C(=O)C=C(OC)C1=O |  | 30 |  | 4.41 |  | 24.1 |  | 1.81 |  | 17.3 |  | 25.9 |  | 3.9 |  | 9.4 |  | 23.9 |  | 19.7 |
| COc1c(-c2ccccc2)nc2ccc(Oc3ccccc3)nn12 |  | 98.1 |  | > 100 |  | > 100 |  | > 100 |  | > 100 |  | > 100 |  | > 70.9 |  | > 100 |  | > 100 |  | > 100 |
| O=C1c2ccccc2C2CCC1c1ccccc12 (stereo not given) |  | > 100 |  | 46.4 |  | > 100 |  | 58.2 |  | > 100 |  | > 100 |  | 57 |  | 93.9 |  | > 100 |  | > 100 |
| C#CCN(c1ccc(C(=O)N[C@@H](CCC(=O)N[C@H](CCC(=O)O)C(=O)O)C(=O)O)cc1)C1CCc2cc3nc(CO)[nH]c(=O)c3cc21 (stereo not given in full) | > 100 | > 100 | 7.53 | > 100 | > 73.5 | > 100 | 7.05 | > 100 | > 100 | > 100 | > 53.4 | > 100 | 88 | > 100 | > 100 | > 100 | > 100 | > 100 | 6.78 | > 100 |
| Nc1nc(/C=C\c2ccccc2)nc(N2CCN(c3ccccc3)CC2)n1 | 27.9 | 94.5 | 13.5 | 31.7 | 20.4 | 60 | 35.8 | > 100 | 28.2 | 57.5 |  |  | 25.9 | > 100 | 28.4 | 81.1 | 18 | 41.8 | 18.2 | 38.6 |
| Nc1c(Cl)ncnc1NCCCCCCCCCCCCNc1ncnc(Cl)c1N |  |  |  | 6.05 |  | > 100 |  | 5.16 |  | 8.35 |  | > 100 |  | 5.74 |  | > 100 |  | 49.8 |  | 39.6 |

Source: PubChem BioAssay (NCI)
